The record followed here is article PMC9655119, “Sustained Activation of CLR/RAMP Receptors by Gel-Forming Agonists” (International Journal of Molecular Sciences, 2022).

Data set [1] is described as follows: Microrheology viscosity assay (Rheosense viscometer). Format: physicochemical. The conditions noted are these: 5% peptide solution in 5% glucose. How it is done: We initially determined the gel-forming capability of peptides qualitatively based on a visual examination of the gel solution using a tube-tapping method. Once we have a rough estimate of the gel-forming capability, we quantitatively determine the viscosity of select peptides using a Rheosense viscometer (Rheosense Inc.; http://www.rheosense.com, accessed on 1 December 2019). In the visual assay, aliquots of peptides were dissolved in an aqueous solution (i.e., de-ionized water, saline, or 5% glucose solution). The peptide that dissolves instantly and stays as a clear solution without obvious macroscopic change in viscosity at 20 min after mixing was considered soluble. If macroscopic particles of peptides remained in the solution for 20 min after mixing, the peptide was considered insoluble. […] In addition, we quantitatively determined the viscosity of Analog C-6 and control peptides using a viscometer. The Rheosense microrheology viscometer uses a “chip” flow channel to quantify the viscosity of a solution as small as 50 μL. After loading the aqueous solution, the sample was injected through the flow channel with multiple pressure sensors, and the rheological properties were determined based on the standard principles of rheometry.

A short description of data set [2]: Passage of peptide molecules through Centricon filters. Format: physicochemical. The method, then: To evaluate whether gel formation reduces the movement of peptide molecules in solution, we used the Centricon® filters (Millipore) to separate samples and the carriers based on their molecular mass. The sample is monomeric peptide, and the carrier is the self-assembled gel. […] Ten minutes later, the solution was diluted to the 0.1% level, and aliquots of the samples were dispensed into separate Centricon columns (30,000 MW cutoff). The monomeric peptides and gel molecules were separated by centrifugation for 15 min (2000× g). The level of peptide in the elutes was determined by specific EIAs (Phoenix Pharmaceuticals Inc., Burlingame, CA, USA).

The target of a further data set is T1, human CLR/RAMP1 (Homo sapiens, UniProt O60894+Q16602).
T1 construct: host or cells: 1321N1 cells (cAMP Hunter cell line)
In words: CLR/RAMP1 receptor-activation assay (DiscoverX cAMP Hunter, HitHunter cAMP XS+). Format: cell-based. How it is done:
(§1) The bioactivity of peptide analogs was studied using CLR/RAMP1, CLR/RAMP2, and CLR/RAMP3 assays by DiscoveRx (Fremont, CA, USA) in cells that stably express human CLR/RAMP1 (1321N1 cells), CLR/RAMP2 (CHO-K1 cells), or CLR/RAMP3 (CHO-K1 cells). The dose-dependent stimulatory effect of agonists was studied in duplicate, at 10 different concentrations. Determination of the half-maximal effective concentration (EC50) was performed using a 10-point dose-response curves. The starting concentration was 1.0 μM, and it was serially diluted 3-fold, in DMSO.
Cells were seeded in a total volume of 20 μL into 384-well microplates, and the activity was determined using the DiscoverX HitHunter cAMP XS + assay. Before the assay, media was aspirated from cells and replaced with 15 μL 2:1 HBSS/10 mM Hepes: cAMP XS + Ab reagent. Intermediate dilution of samples was performed to generate 4X sample in assay buffer, and 5 μL of the 4X sample was added to cells and incubated at 37°C. Vehicle concentration was 1%.
The chemiluminescent signal was read with a PerkinElmer instrument.

A further data set concerns the target T2, human CLR/RAMP2 (Homo sapiens, UniProt O60895+Q16602).
T2 construct: host or cells: CHO-K1 cells (PathHunter β-Arrestin cell line)
In words: CLR/RAMP2 receptor-activation assay (PathHunter β-Arrestin). Type of data set: cell-based. The method, then:
as §1
In this assay, the CLR was fused in frame with a small enzyme donor fragment ProLink™ (PK). The receptor was co-expressed with a fusion protein of β-arrestin and an N-terminal deletion mutant of β-galactosidase (i.e., enzyme acceptor). Activation of the CLR/RAMP2 receptor stimulated the binding of β-arrestin to the PK-tagged receptor and led to an increase in enzyme activities which can then be measured with the PathHunter detection reagents. PathHunter cell lines were seeded in a total volume of 20 μL into 384-well microplates and incubated at 37 °C prior to the assay. Intermediate dilution of samples was performed to generate 5X samples in the assay buffer. A 5 μL aliquot of 5X sample was added to cells and incubated at 37 °C for 90 min. Vehicle concentration was 1%.

Data set [3] is described as follows: Release of Analog C-6 from the gel solution in vivo (single-dose pharmacokinetics). Also noted: species or system Sprague–Dawley rats. The conditions noted are these: plasma. The method, then: Single-dose pharmacokinetics of the Analog C-6 gel solution was investigated in male Sprague–Dawley rats. Rats received a gel solution via the subcutaneous route, and blood samples were collected at pre-dose, 8 h, 1, 2, 4, and 8 days via a catheter that had been cannulated to the jugular vein. Plasma was obtained by centrifugation, and the peptide level in samples was determined by specific ADM EIA (Phoenix Pharmaceuticals Inc.).

T2 sequence (Q16602 23-461): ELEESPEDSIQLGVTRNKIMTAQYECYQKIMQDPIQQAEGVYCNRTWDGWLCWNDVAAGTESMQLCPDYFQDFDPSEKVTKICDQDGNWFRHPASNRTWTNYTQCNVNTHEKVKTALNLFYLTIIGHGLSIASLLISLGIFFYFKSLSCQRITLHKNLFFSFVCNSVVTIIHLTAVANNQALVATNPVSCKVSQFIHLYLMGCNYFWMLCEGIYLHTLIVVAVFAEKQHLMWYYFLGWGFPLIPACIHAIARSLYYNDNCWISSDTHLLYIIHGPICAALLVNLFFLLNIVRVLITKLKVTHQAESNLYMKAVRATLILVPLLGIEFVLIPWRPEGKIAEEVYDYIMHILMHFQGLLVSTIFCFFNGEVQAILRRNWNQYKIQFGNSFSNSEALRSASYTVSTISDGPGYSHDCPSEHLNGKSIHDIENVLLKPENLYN
T2 sequence (O60895 43-175): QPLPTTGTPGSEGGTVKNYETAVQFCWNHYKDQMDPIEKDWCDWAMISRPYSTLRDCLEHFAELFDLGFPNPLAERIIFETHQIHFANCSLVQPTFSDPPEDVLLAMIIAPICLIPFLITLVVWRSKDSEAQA
T1 sequence (Q16602 23-461): as the sequence (Q16602 23-461) above
T1 sequence (O60894 27-148): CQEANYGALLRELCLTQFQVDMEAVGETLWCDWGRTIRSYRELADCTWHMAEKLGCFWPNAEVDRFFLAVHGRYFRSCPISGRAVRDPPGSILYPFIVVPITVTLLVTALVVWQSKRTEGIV

With “adrenomedullin [ADM, reference compound]”, the “viscosity compared with water” value in data set [1] is “significantly higher than that of water”. In data set [2] (Centricon 30,000 MW cutoff, 2000× g 15 min, 5% glucose, samples diluted to 0.1% after 10 min, CGRP or ADM EIA, triplicate), the “peptide level in Centricon elute, 5% and 20% solution groups versus 0.1% solution” value is “lower than that of the 0.1% solution group”.
Usually EC50 stands for the concentration needed to bring the measured effect to its halfway point. As for `CCCCCCCCCCCCCCCC(=O)NCCCC[C@H](N)C(=O)NCC(=O)N[C@H]1CSSC[C@@H](C(=O)N[C@H](C(=O)N[C@H](C(=O)N[C@@H](CCC(N)=O)C(=O)N[C@@H](CCCCN)C(=O)N[C@@H](CC(C)C)C(=O)N[C@@H](C)C(=O)N[C@@H](Cc2c[nH]cn2)C(=O)N[C@@H](CCC(N)=O)C(=O)N[C@H](C(=O)N[C@@H](Cc2ccc(O)cc2)C(=O)N[C@@H](CCC(N)=O)C(=O)N[C@@H](Cc2ccccc2)C(=O)N[C@H](C(=O)N[C@@H](CC(=O)O)C(=O)N[C@@H](CCCCN)C(=O)N[C@@H](CC(=O)O)C(=O)N[C@@H](CCCCN)C(=O)N[C@@H](CC(=O)O)C(=O)N[C@@H](CC(N)=O)C(=O)N[C@H](C(=O)N[C@@H](C)C(=O)N2CCC[C@H]2C(=O)N[C@@H](CCCNC(=N)N)C(=O)N[C@@H](CO)C(=O)N[C@@H](CCCCN)C(=O)N[C@H](C(=O)N[C@@H](CO)C(=O)N2CCC[C@H]2C(=O)N[C@@H](CCC(N)=O)C(=O)NCC(=O)N[C@@H](Cc2ccc(O)cc2)C(N)=O)[C@@H](C)CC)C(C)C)[C@@H](C)O)[C@@H](C)CC)C(C)C)[C@@H](C)O)NC(=O)[C@H]([C@@H](C)O)NC(=O)CNC(=O)[C@H](Cc2ccccc2)NC(=O)[C@H](CCCNC(=N)N)NC1=O` [Analog C-6], the concentration for a half-maximal effect (EC50) stood at 24 nM on human CLR/RAMP1 (1321N1 cells stably expressing human CLR/RAMP1, cAMP read-out, 10-point dose-response in duplicate, start 1.0 μM, 3-fold serial dilution in DMSO) and 2.8 nM at human CLR/RAMP2 (CHO-K1 cells stably expressing human CLR/RAMP2, β-arrestin recruitment, 90 min at 37 °C, 10-point dose-response in duplicate, start 1.0 μM, 3-fold dilution in DMSO). The Emax was determined as 78% on human CLR/RAMP1 (percentage of positive control β-CGRP, read-out: CLR/RAMP1 Max Activity) and 87% on human CLR/RAMP2 ([…], percentage of positive control ADM1-52, read-out: CLR/RAMP2 Max Activity). The “solubility in saline solution” value in data set [2] (0.1% peptide in saline) was “low solubility”. Further, the “time during which circulating level was significantly increased” value in data set [3] (male Sprague–Dawley rats, s.c., 32 mg in 16% gel solution, ADM EIA, n = 3) lay in the range of 8 to 48 h. Moreover, the Tmax in data set [3] (male, Sprague-Dawley, rat, sc, 32 mg, read-out: time of peak circulating peptide level) is 8 h.
